From patent US7524512B2, “Composition and method for the prevention and relief of the symptoms of an incompetent or patulous Eustachian tube” (priority 2007, dated 2009) come the findings set out here.

Series [1] has as its system patulous Eustachian tube syndrome. The experiment in a line: Selected case studies: nose drops in patients with patulous / semi-patulous Eustachian tube syndrome. Format: in vivo, human. The protocol: In an exemplary first administration protocol, the composition is administered in the form of nose drops, the patient sniffs them through the ipsilateral nostril on the side of the symptomatic ear affected with the disorder. The number of drops administered can be titrated to the needs of the individual patient. The patient can sniff from two to four drops of the solution, and the drops are sniffed back into the nostril so as to deliver the medication to the Eustachian tube opening in the back of the nose. Administration of the drops may be repeated again in four to six hours. As desired, the daily dose maybe increased to 4 drops per administration.
An exemplary nasal drop administration protocol has been developed for the first exemplary embodiment. To achieve normal closure of the lumen, 2-6 drops of the nasal supplement solution are applied to the stoma or opening of the Eustachian tube. It may take two weeks before changes in symptoms become apparent.
Referring to the illustrations in FIGS. 1 and 2 for reference, after the patient been up for a period of time, symptoms begin as the tubal tissues lose fluid and the lumen increases. When the patient feels the symptom of autophony is about to occur, gently blowing the nose to clear any mucous is accomplished.
With the patient 10 lying with head 12 between 45 to 60 degrees above horizontal. This places the Eustachian tube stoma (opening) lower than the nostril 16. Gravity will allow the drops to flow to the back of the nose. Sniffing will draw the drops further info the nasal passage to the Eustachian tube before the semi-permiable membrane lining of the nasal passage can absorb them. Alternatively while sitting in a chair, the head is tilted back at approximately 45 degrees and then tilted toward the affected ear to place it almost below the nose.
For nasal administration, to instill the drops, put the dropper tip one-quarter inch (¼″) into the lower nostril (affected side), closest to the symptomatic ear.
Instill 2-4 drops depending on individual anatomy. Sniffing briskly to draws the drops back approximately three inches (3″) to the location of the tube opening where they will be absorbed. The patient may feel a brief burning or stinging sensation when the drops are administered properly to stimulate the closure of the stoma of the tube. The patient then remains lying down in the administering position for ten (10) seconds.

Series [2] relates to otitis media / middle ear infection. Description: Case studies: treatment of otitis media, otitis media with effusion and middle ear infection. Format: in vivo, human. The protocol:
Modification of the composition and methods of treatment for otitis media (OM) and otitis media with effusion (OME) due to inflammatory disease of the middle ear epithelium, structures and specialized membranous tissues is described below. The inflammatory diseases of the middle ear and biofilm are treated herein treated by the following methods. The composition is preferably delivered through the natural opening at the nasopharyngeal orifice of the eustachian tube leading to the middle ear chamber. If this is not possible, a needle or myringotomy incision in made in the tympanic membrane (ear drum) via the external ear canal for the delivery of the embodiment, with or without a device, into the middle ear to chamber. The chamber is irrigated and the biofilm flushed by the exemplary embodiment of the composition delivered as described above.
In otitis media, the solution is topically applied to the Eustachian Tube mucosa in appropriate dosage forms for administration or delivered to the middle ear chamber by delivery through the stoma of the Eustachian Tube in the form of nasal drops, spray, aerosol, rinse, douche or gel. The delivery system may include the modified Politzer technique or catheter insufflation of the middle ear.
If the middle ear chamber is not easily accessible through its natural eustachian tubal stoma, the chamber can be reached directly by surgically penetrating or making an incision in the tympanic membrane of the lateral wall of the middle ear, as in a myringotomy.
In this way, the contaminated middle ear fluid, micro-organisms and biofilm adhesins seen in OME may be degraded and removed by a paracentesis (needle)or myringotomy (scalpel) incision of the tympanic membrane with aspiration of the fluid, under direct visualization. The middle ear fluids and debris are degraded and flushed out by rinsing with the composition of the exemplary embodiment delivered through the acquired opening into the middle ear chamber, in the form of nasal drops, spray, aerosol, rinse, douche, irrigation or gel. The composition, L-Ascorbic acid, in about 4% to 10% wt/vol in an aqueous solution, is employed through a surgically made incision or acquired defect in the tympanic membrane of the middle ear for the optimal characteristics or effects to reestablish Eustachian luminal patency, restore the rheologic properties of the membranous lining, to breakdown and eliminate the contained microorganisms, biofilm or abiotic toxins adhering to the membranes and coating any implanted device in the middle ear, to normalize surface tension and passive closing pressure, facilitating mucociliary clearance through the restored Eustachian tube orifice into the nasopharynx. The products are then swallowed and arrive in the stomach, where the endogenous enzymes and HCL of the stomach inactivate and digest and any residual microorganisms or proteinaceous products.
If a tympanic membrane rupture has occurred, as a complication or from specific trauma, the method of the delivery of the exemplary embodiment is modified for the maximum therapeutic effect of supporting healing of the damaged tympanic membrane. This is accomplished by the application of solid, porous or absorbable implanted devices or sculptured to the anatomical defect of the tympanic membrane and implanted under direct visualization employing a surgical microscope. A non-porous device or tube may be implanted for the delivery of the novel embodiment. The implanted device serves as a conduit through which the embodiment is administered via the external ear canal on a scheduled program for continuous availability of the composition of the exemplary embodiment to support tissue healing by pre-collagen formation and re-epithelization cardinal to middle ear functions.

Setting [3] is: Example A: child, 5% in aqueous saline, topical to nasal mucosa, one month after recovery from upper respiratory infection.
[4] abbreviates: Example C: person, 5% wt/vol aqueous solution on porous implanted device, daily, after three months.

In the case of `O=C1O[C@H]([C@@H](O)CO)C(O)=C1O` [L-Ascorbic acid], the adverse side effects entry in series [1] (Example I: person, three drops, 15% wt/vol in distilled water, nose drops) is reported as “no adverse side effects were noted”. In series [1] (Example I: person, three drops, 15% wt/vol in distilled water, sniffed into ipsilateral nostril, repeated six hours later), the “patulous Eustachian tube syndrome (autophony)” value was “completely relieved”. Further, the “autophony symptom of an Incompetent Eustachian Tube” value in series [1] (Example II: person, unilateral semi-patulous Eustachian tube syndrome, 20% wt/vol aqueous solution, pH 2.0, 2-4 drops per treatment) was “receded completely”. In series [1] (Example II: person, 20% wt/vol aqueous solution, pH 2.0, 2-4 drops), the adverse side effects entry is given as “no adverse side effects”. Moreover, the “carcinogenic effect from daily administration of nose drops” value in series [1] (Example IV: person after nasopharyngeal carcinoma resection, 15% wt/vol aqueous solution, pH 2.1, daily over several years) is “no carcinogenic effect”. In addition, the “cytology studies of the right Eustachian tube area” value in series [1] (Example IV: person, 15% wt/vol aqueous solution, pH 2.1, daily for several years) is “free of cancer”. The “relief of PET symptoms” value in series [1] (inventor (JD) as subject, two drops, 15% wt/vol. in distilled water, as needed, after one month) is listed as “complete symptomatic relief”. Moreover, the middle ear pressure result in series [2] (Example A: child, bilateral negative middle ear pressure, 5% in aqueous saline solution, nasal spray, over the next month) is listed as “within normal limits”. Also, in series [2] (setting [3]), the “Eustachian Tube function” value is “normal” and the “middle ear infection or fluid on examination” value was “no evidence of any middle ear infection or fluid”. In addition, the signs of infection result in series [2] (Example B: person, Corynebacterium, 5% wt/vol in physiologic saline, two times a day) is reported as “no further signs of infection”. Moreover, the middle ear drainage result in series [2] (Example B: person, right middle ear infection (Corynebacterium), 5% wt/vol in physiologic saline, trans canal through the perforation, two times a day, in five days) is given as “completely eliminated”. Besides, the “mastoid / middle ear drainage” value in series [2] (Example C: person, chronic right mastoiditis, total tympanic membrane perforation, 5% wt/vol aqueous solution on porous implanted device, daily, after three months) is “ceased”. Moreover, in series [2] (setting [4]), the infection entry is listed as “free of infection” and the right eardrum perforation result is “healed closed”. Besides, in series [2] (Example III: child, chronic otitis media with effusion, 4% wt/vol in physiologic saline, metered nasal spray after politzerization, after two weeks), the hearing result is recorded as “hearing was restored”. In addition, in series [2] (Example III: child, 4% wt/vol in physiologic saline, metered nasal spray), the adverse side effects entry is given as “no adverse side effects”.
